Source: PubChem BioAssay (NCI)
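These data come from cells grown in 96-well plates and exposed to compound for 48 hours at five concentrations. Here, GI50 denotes the concentration required for 50% inhibition of growth. TGI: total growth inhibition.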

How the values were obtained:
Test in all cases: inhibition of tumour cell growth, NCI panel, 48 h
[1] = tested on: SF-539 CNS
[2] = tested on: KM12 colon
[3] = tested on: IGROV1 ovarian
[4] = tested on: LOX IMVI melanoma
[5] = tested on: COLO 205 colon
[6] = tested on: EKVX NSCLC
[7] = tested on: RXF 393 renal
[8] = tested on: M14 melanoma
[9] = tested on: SF-268 CNS
[10] = tested on: UACC-257 melanoma

SMILES	GI50 [1] [nM]	TGI [1] [µM]	GI50 [2] [nM]	TGI [2] [µM]	GI50 [3] [µM]	TGI [3] [µM]	GI50 [4] [µM]	TGI [4] [µM]	GI50 [5] [µM]	TGI [5] [µM]	GI50 [6] [µM]	TGI [6] [µM]	GI50 [7] [µM]	TGI [7] [µM]	GI50 [8] [nM]	TGI [8] [µM]	GI50 [9] [µM]	TGI [9] [µM]	GI50 [10] [µM]	TGI [10] [µM]
O=C(CCCn1c2c(sc3ncccc32)c(=O)n2nnc(-c3ccccc3)c12)NCCc1cnc[nH]1	316	14.9	1890	24	9.54	27.6	12.4	26.6	6.28	23.5	15.2	44.5	14.8	34	3500	19.4	11.7	29.1	18.3	35.6
O=C(Oc1cccnc1)c1ccccc1Nc1ccnc(C(F)(F)F)c1	42.8	> 100	169	2.72	21.7	> 100	0.0406	> 37.8	0.156	0.363	6.15	46.4	0.473	13.5	53.6	3.11	0.333	14.4	35.7	> 100
CCOc1ccccc1NC(=O)C(=O)CC(=O)C1=C(C)Nc2ccccc2S1	–	> 100	–	> 100	–	> 100	–	> 100	–	> 100	–	> 100	–	> 100	–	> 100	–	> 100	–	> 100
O=c1[nH]c(=S)[nH]c2c1sc(=S)n2-c1ccccc1	–	> 100	–	> 100	–	> 100	–	> 100	–	> 100	–	> 100	–	> 100	–	> 100	–	> 100	–	> 100
